Measured values taken from patent publication US7655756B2 (Johnson & Johnson Pharmaceutical Research & Development, LLC, priority 2005, dated 2010).
Entries after “also recorded” stand apart in the source; their conditions may differ.

What was measured:
ERRβ = target: T1, ERRβ (Homo sapiens, UniProt O95718); assay: ThermoFluor thermal shift assay, ERRβ; assay type: binding
T1 sequence (O95718 208-432 limits assumed): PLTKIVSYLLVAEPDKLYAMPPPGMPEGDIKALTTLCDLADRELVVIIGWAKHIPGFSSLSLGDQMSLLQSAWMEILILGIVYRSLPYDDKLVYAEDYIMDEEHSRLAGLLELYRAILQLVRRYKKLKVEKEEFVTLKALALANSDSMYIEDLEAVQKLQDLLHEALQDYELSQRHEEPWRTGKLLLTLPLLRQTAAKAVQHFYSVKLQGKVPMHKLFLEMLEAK

ERα = target: T2, ERα (Homo sapiens, UniProt P03372); assay: ThermoFluor thermal shift assay, ERα; assay type: binding
T2 sequence (P03372 1-595): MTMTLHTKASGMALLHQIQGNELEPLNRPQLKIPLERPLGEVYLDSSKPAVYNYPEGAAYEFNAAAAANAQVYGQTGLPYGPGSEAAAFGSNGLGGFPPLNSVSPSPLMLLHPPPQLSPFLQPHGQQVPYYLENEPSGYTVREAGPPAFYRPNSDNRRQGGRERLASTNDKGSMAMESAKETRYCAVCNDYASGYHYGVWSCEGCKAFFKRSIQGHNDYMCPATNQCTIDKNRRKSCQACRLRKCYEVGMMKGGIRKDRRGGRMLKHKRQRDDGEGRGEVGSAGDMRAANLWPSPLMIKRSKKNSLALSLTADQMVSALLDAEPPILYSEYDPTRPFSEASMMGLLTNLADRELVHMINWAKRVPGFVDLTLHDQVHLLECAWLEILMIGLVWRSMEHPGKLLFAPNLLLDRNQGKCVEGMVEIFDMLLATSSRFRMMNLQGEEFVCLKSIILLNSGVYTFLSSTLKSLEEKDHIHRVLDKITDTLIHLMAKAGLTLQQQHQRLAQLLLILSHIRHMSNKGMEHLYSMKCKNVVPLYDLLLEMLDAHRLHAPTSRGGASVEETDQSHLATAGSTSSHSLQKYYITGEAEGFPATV

ERRα = target: T3, ERRα (Homo sapiens, UniProt P11474); assay: ThermoFluor thermal shift assay, ERRα; assay type: binding; details: 100 μM test compound, 0.1 mg/mL protein, 25 mM HEPES pH 8.0, 25 μM ANS, 2% DMSO, Tm free protein 54.4 °C
T3 sequence (P11474 193-421 limits assumed): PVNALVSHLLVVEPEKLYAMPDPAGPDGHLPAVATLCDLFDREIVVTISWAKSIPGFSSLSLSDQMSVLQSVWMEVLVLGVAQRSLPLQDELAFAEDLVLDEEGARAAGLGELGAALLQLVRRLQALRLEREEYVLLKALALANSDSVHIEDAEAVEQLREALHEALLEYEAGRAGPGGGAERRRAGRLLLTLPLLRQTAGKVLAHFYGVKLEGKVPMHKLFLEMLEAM

[1] = target: T4, ligand binding domain of ERRγ (Homo sapiens, UniProt P62508); assay: Thermal denaturation monitored by CD spectroscopy; details: data not shown
T4 construct: 6His; made in house; host or cells: E. coli BL21(DE3)
T4 sequence (P62508 229-458): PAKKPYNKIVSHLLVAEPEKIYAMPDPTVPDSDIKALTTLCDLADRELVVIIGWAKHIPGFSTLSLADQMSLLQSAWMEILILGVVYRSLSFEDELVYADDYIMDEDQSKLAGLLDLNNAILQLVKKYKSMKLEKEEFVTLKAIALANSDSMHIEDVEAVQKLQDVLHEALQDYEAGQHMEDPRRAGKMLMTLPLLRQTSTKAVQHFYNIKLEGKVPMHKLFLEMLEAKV
Text: Ligand binding energy adds directly to the ground state energy of a macromolecule and results in increased thermal stability. The degree of stabilization is proportional to the binding affinity of the ligand for the macromolecule.

ERβ = ERβ (Homo sapiens, UniProt Q92731); assay: ThermoFluor thermal shift assay, ERβ; assay type: binding; details: 100 μM test compound; 0.1 mg/mL protein, 25 mM HEPES pH 8.0; Tm free protein 41.1 °C; read-out: ΔTm, thermal stabilization of ERβ
Sequence of ERβ (Q92731 whole entry, species assumed, the tested form may be a part): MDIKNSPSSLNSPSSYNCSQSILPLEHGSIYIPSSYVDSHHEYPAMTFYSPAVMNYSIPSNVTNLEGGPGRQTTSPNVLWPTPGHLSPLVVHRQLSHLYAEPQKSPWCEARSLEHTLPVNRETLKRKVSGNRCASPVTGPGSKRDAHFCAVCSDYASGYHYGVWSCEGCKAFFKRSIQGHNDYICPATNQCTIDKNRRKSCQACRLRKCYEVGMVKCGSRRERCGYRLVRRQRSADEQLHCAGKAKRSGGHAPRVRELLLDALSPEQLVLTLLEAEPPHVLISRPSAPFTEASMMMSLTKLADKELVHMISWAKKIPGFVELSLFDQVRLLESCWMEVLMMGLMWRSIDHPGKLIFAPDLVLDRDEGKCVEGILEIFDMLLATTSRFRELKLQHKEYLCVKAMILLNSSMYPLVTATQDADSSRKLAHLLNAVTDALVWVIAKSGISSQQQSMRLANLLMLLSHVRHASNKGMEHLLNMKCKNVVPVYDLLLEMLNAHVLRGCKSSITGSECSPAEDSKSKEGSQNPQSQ

pBIND-Gal4-ERRγ = assay: Cell based reporter (trans-activation) assay in HEK293E cells; details: luciferase reporter, Gal4-ERRγ and pACT-SRC2, 24 hours of compound treatment
Description: A cell based reporter assay was used to determine the functional response of the ERRγ hits. Transfections were performed in HEK293E cells that were maintained in DMEM supplemented in glutamine and 10% FBS. Co-transfections of 4 μg of a luciferase reporter plasmid and 4 μg of each pBIND-Gal4-ERRγ and pACT-SRC2 plasmids per T-75 flask were done using Lipofectamine as per manufacturers instructions. Twenty-four hours post-transfection, the cells were seeded in 96-well plates at density of 50,000 cells per well in assay media (DMEM phenol free, 5% charcoal stripped FBS). […] After 24 hours of compound treatment, cells were lysed and treated with the Promega Dual-Glo system. Firefly Luciferase activity was read using a luminescence plate reader, and data were normalized against Renilla luciferase activity. Data were fitted using subroutines available from GraphPad.

ERRγ = target: T5, ERRγ (Homo sapiens, UniProt P62508); assay: Isothermal titration calorimetry; assay type: binding
T5 construct: 6His; made in house; host or cells: E. coli BL21(DE3)
T5 sequence (P62508 229-458): T4 sequence (P62508 229-458)
Description: The heat of interaction of the ligands with ERRγ molecules was measured by using the Omega titration calorimeter from Microcal Inc. In a typical titration, 1.4 mL of a 20 μM protein solution is titrated with a ligand solution of ˜0.4 mM concentration using a 100 μL syringe by ˜20 injections of 5-6 μL each. This syringe is also used to mix the reactants completely in the sample cell by rotating it at 400 rpm. For each injection, the area under the resulting peak is proportional to the heat of interaction, Q. Once this heat is corrected for the titrant dilution and normalized by the titrant solution concentration it becomes equal to the binding enthalpy, ΔHb, under nonsaturating conditions. The precision of the heat of each injection is about 0.5 μcal. One method of determining ΔHb is to average several intermediate peaks from the different sites. In addition to the binding enthalpies, one can obtain binding affinities, and overall stoichiometries of the complexes. The experimental calorimetric binding isotherm is the dependence of the total heat, Qr, (or dQrldX T) on the total concentration of ligand added, Xr. The above three parameters for each type of site are determined iteratively using the Marquardt algorithms as described previously.

ERRγ-SRC2 complex = target: T6, ERRγ-SRC2 complex (Homo sapiens, UniProt P62508); assay: TR-FRET co-activator recruitment assay; assay type: biochemical
T6 construct: made in house; host or cells: E. coli BL21(DE3) (ERRγ LBD)
T6 sequence (P62508 229-458): T4 sequence (P62508 229-458)
Description: For FRET measurements, the reaction was buffered in 25 mM Tris pH 8, 2.5 mM Hepes, 20 mM KCl, 1 mM DTT, and 0.05 mg/mL delipidated BSA.
Time-resolved Fluorescence resonance energy transfer (FRET) experiments were performed to examine the functional response of ERRγ ligands.
For FRET measurements, the reaction was buffered in 25 mM Tris pH 8, 2.5 mM Hepes, 20 mM KCl, 1 mM DTT, and 0.05 mg/mL BSA (-lipids). […] Reactions were allowed to reach equilibrium at 25° C. for 4-18 hours before collecting data on the Analyst from LJL Biosystems (Molecular Devices Sunnyvale, Calif.). […] Dose response curves were fitted using a hyperbolic equation and the data reported is the average of three independent experiments.

ΔTm at 100 µM (ERβ) [°C] | ΔTm at 100 µM (ERRβ; 100 μM test compound, 0.1 mg/mL protein, 25 mM HEPES pH 8.0, Tm free protein 47.5 °C, read-out: ΔTm, thermal stabilization of ERRβ) [°C] | ΔTm at 100 µM (ERα; 100 μM test compound, 0.1 mg/mL protein, 25 mM HEPES pH 8.0, Tm free protein 39.1 °C, read-out: ΔTm, thermal stabilization of ERα) [°C] | ΔTm at 100 µM (ERRα; read-out: ΔTm, thermal stabilization of ERRα) [°C] | Kd (ERRγ; 20 μM protein titrated with ~0.4 mM ligand, read-out: Binding affinity by isothermal titration calorimetry) [nM] | Binding enthalpy ΔHb (ERRγ; isothermal titration calorimetry) [kcal/mol] | Enhancement in the affinity of the receptor for co-activator peptide fragments, in words (ERRγ-SRC2 complex) | Compound | ΔTm, thermal stabilization of ERRβ (ERRβ; 100 μM test compound, 0.1 mg/mL protein, 25 mM HEPES pH 8.0, Tm free protein 47.5 °C) [°C] | Kd (ERRβ; calculated at reference temperature 25 °C from ΔTm of Table II, ΔHu 155 kcal/mol, read-out: Estimated dissociation constant, ERRβ) [nM] | ΔTm, thermal stabilization of ERα (ERα; pH 8) [°C] | ΔTm, thermal stabilization of ERRα (ERRα) [°C] | Thermal stabilization of ERRγ by loss of α-helicity (CD), in words [1] | Change in transcriptional activity in trans-activation cellular assay, in words (pBIND-Gal4-ERRγ) | Displacement of co-activator peptide from ERRγ (antagonism), in words (ERRγ-SRC2 complex; 6 nM ERRγ LBD, 6 nM GST-SRC-2 peptide)
– | – | – | – | – | – | – | 4-hydroxytamoxifen [4OHT] | 2.15 | 2640 | 17.1 | −0.1 | positive thermal stabilization | – | –
7.4 | -0.1 | 4.4 | 0 | 70 | ~-21 | not able to demonstrate | CC(C)(c1ccc(O)cc1)c1ccc(O)cc1 [BPA, bisphenol A] | – | – | – | – | – | not able to demonstrate | ineffective; also recorded: neither ligand displaced co-activator peptide
